From EP0863769B1 (priority 1996, dated 1998)

Assays:
Assay type in all cases: binding, Influenza Viren
Details in all cases: read-out: Affinität der Bindung an Virus, Kaff
X31 (A/Aichi/2/68) = biological target: X31 (A/Aichi/2/68)
A/England/321/77 = biological target: A/England/321/77
A/USSR/3/85 = biological target: A/USSR/3/85
A/Sichuan/1/87 = biological target: A/Sichuan/1/87
A/FW/1/50 = biological target: A/FW/1/50
A/USSR/90/77 = biological target: A/USSR/90/77
A/Chile/1/83 = biological target: A/Chile/1/83
B/USSR/100/83 = biological target: B/USSR/100/83
B/Ann Arbor/1/86 = biological target: B/Ann Arbor/1/86
B/Yamagata/11/88 = biological target: B/Yamagata/11/88

Poly-N-(2-Hydroxyethyl)-acrylamid mit 20% mol. 6SLN [6SLN-PAA]
Kd (X31 (A/Aichi/2/68)): 3000 nM
Kd (A/England/321/77): 10 nM
Kd (A/USSR/3/85): 100 nM
Kd (A/Sichuan/1/87): 100 nM
Kd (A/FW/1/50): 3000 nM
Kd (A/USSR/90/77): 300 nM
Kd (A/Chile/1/83): 6000 nM
Kd (B/USSR/100/83): 2000 nM
Kd (B/Ann Arbor/1/86): 3000 nM
Kd (B/Yamagata/11/88): 100000 nM
